# In US20250195682A1, “IMPROVED CELL-TARGETING BINDING MOLECULE” (priority 2018, published 2025):
# Columns and labels:
# HeLa cells (EGFR+) = assay: Cell viability (MTS) assay, HeLa cells; assay type: cell-based, human; details: co-administered with SO1861 + dianthin-EGF, 500 nM PAMAM (native, thiolated, PEGylated) or chloroquine, 667 nM dendron
# Protocol: (§1) After treatment the cells were incubated for 72 hr at 37° C. before the cell viability was determined by a MTS-assay, performed according to the manufacturer's instruction (CellTiter 96@AQueous One Solution Cell Proliferation Assay, Promega). Briefly, the MTS solution was diluted 20× in DMEM without phenol red (PAN-Biotech GmbH) supplemented with 10% FBS (PAN-Biotech GmbH). The cells were washed once with 200 μL PBS per well, after which 100 μL diluted MTS solution was added per well. The plate was incubated for approximately 20-30 minutes at 37° C. Subsequently, the optical density at 492 nm was measured on a Thermo Scientific Multiskan FC plate reader (Thermo Scientific). For quantification the background signal of ‘medium only’ wells was subtracted from all other wells, before the ratio of untreated/treated cells was calculated, by dividing the background corrected signal of untreated wells over the background corrected signal of the treated wells.
# [1] = pH dependent hydrolysis of the hydrazone bond (MALDI-TOF-MS); assay type: physicochemical; details: HCl solution at pH 3
# [2] = tested on: SK-BR-3, JIMT-1, MDA-MB-468, A431, CaSki, HeLa, A2058; assay: Control treatments, relative cell viability on various cancer cell lines; assay type: cell-based, human; details: toxins up to 100.000 pM
# Protocol: as §1
molecule,measurement,setting,value
CCN(CC)CCCC(C)Nc1ccnc2cc(Cl)ccc12 (stereo not drawn) [chloroquine],effect on SO1861-mediated endosomal escape of the targeted toxin and cell killing,HeLa cells (EGFR+),inhibit the SO1861-mediated endosomal escape
CC(=O)OC1C(C)OC(OC2C(C)OC(OC(=O)[C@]34CCC(C)(C)CC3C3=CCC5[C@@]6(C)CC[C@H](OC7OC(C(=O)O)C(O)C(OC8OCC(O)C(O)C8O)C7OC7OC(CO)C(O)C(O)C7O)[C@@](C)(/C=N/NC(=O)CCCCCN7C(=O)C=CC7=O)C6CC[C@@]5(C)[C@]3(C)C[C@H]4O)C(OC3OC(C)C(OC4OCC(O)C(OC5OC(CO)C(O)C(O)C5O)C4O)C(O)C3O)C2O)C(O)C1OC1OCC(O)C(O)C1O (stereo partly drawn) [SO1861-EMCH],hydrolysis of the hydrazone bond,[1],the hydrazone bond is responsive towards hydrolysis and gets cleaved
saporin,influence on cell viability,[2],do not or hardly have any influence on cell viability
